One test deals with T1, mPGES-1 (Homo sapiens, UniProt O14684).
T1 sequence (O14684 1-152): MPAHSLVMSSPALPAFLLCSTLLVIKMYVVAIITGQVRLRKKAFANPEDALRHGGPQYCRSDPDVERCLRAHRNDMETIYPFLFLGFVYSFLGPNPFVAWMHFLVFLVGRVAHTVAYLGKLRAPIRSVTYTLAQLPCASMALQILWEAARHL
In words: mPGES-1 enzyme activity assay (PGE2 enzyme immunoassay), human enzyme. The class given is biochemical. Further details: made in house; host or cells: FreeStyle 293-F cells, crude microsomal preparation. The conditions noted are these: IC50 against mPGES-1, Human enzyme, recombinant microsomal enzyme; means ± SD, triplicate. On the procedure:
(§1) Studies were conducted to characterize the inhibitory activity against recombinant mPGES-1 of the compounds synthesized in accordance with Examples 1-4, and disclosed herein.
(§2) Briefly, FreeStyle 293-F cells were cultured following manufacturer's manual in FreeStyle 293 expression medium on orbit rotate shaker in 8% CO2 incubator at 37° C. Cells were transfected with 1.5 μg/mL of mPGES-1/pcDNA3 construct using FreeStyle Max reagent at a cell density of 1×10^6 for 2 days. Transfected cells were collected, washed, and sonicated in TSES buffer (15 mM Tris-HCl, pH 8.0 plus 0.25 M sucrose, 0.1 mM EDTA and 1 mM DTT) on ice. The broken cells were first centrifuged at 12,500×g for 10 min. The supernatant was further centrifuged at 105,000×g for 1 hr at 4° C. The pellet was washed and homogenized in PBS buffer. The crude microsomal mPGES-1 preparation was aliquoted and stored at −80° C. The crude protein concentration was 8 mg/mL.
(§3) The enzyme activity assays were performed on ice in 1.5 ml microfuge tubes by using the expressed mPGES-1. The reaction mixture contained: 0.2 M Na2HPO4/NaH2PO4, pH 7.2, 10 μL; 0.1 M GSH, 2.5 μL; diluted microsomal enzyme (80 μg/mL), 1 μL; PGH2 (0.31 mM in DMF), 5 μL; 1 μL inhibitor; and H2O in a final reaction volume of 100 μL. PGH2 was stored in dry ice and used to initiate the reaction.
(§4) Compounds were incubated with the enzyme for 15 min at room temperature before the addition of cold PGH2 (1 μM final) to initiate the enzyme reaction. After 30 s, 10 μL of SnCl2 (40 mg/mL) in ethanol was added to stop the reaction. The nonenzymatic conversion of PGH2 to PGE2 was performed in the same buffer devoid of enzyme. The reaction mixture was placed on ice until PGE2 production was determined by the PGE2 enzyme immunoassay as described earlier. IC50 values of the inhibitors were calculated by using the GraphPad Prism 4.0 program. The results are set forth in the tables provided in Examples 7-10.
Usually IC50 stands for the concentration needed to halve the response being measured. In the case of `CCCCCCCOc1ccc(C=C2C(=O)NC(=O)NC2=O)cc1[N+](=O)[O-]` [Compound I-40], the IC50 came out at 232 ± 54 nM.
Consider `CCCCCCCCCCOc1ccc(-c2nn(-c3ccccc3)cc2C=C2C(=O)NC(=O)NC2=O)cc1` [VI-07], for which the IC50 is 375 ± 127 nM.
Regarding `O=C1NC(=O)C(=Cc2ccc(OCCCC3CCCCC3)c([N+](=O)[O-])c2)C(=O)N1` [Compound I-26], the 50% inhibitory concentration (IC50) came out at 156 ± 30 nM.
Same read-out and setting: next, `COc1cc(C=C2C(=O)NC(=O)NC2=O)ccc1OCCCCC1CCCCC1` [Compound I-06]: 121 ± 20 nM; `O=C1NC(=O)C(Cc2ccc(OCCCCC3CCCCC3)c(Br)c2)C(=O)N1` [Compound I-43]: 97 ± 13 nM; `O=C1NC(=O)C(=Cc2ccc(OCCCCC3CCCCC3)c(Cl)c2)C(=O)N1` [Compound I-21]: 28 ± 3 nM.
Regarding `O=C1NC(=O)C(=Cc2ccc(OCCC3CCCCC3)c([N+](=O)[O-])c2)C(=O)N1` [Compound I-37], the IC50 was determined as 517 ± 68 nM.
Regarding `CN1C(=O)C(=Cc2ccc(OCCCC3CCCCC3)c(Cl)c2)C(=O)N(C)C1=O` [Compound I-27], the concentration for half-maximal inhibition (IC50) is 240 ± 20 nM.
`O=C1NC(=O)C(=Cc2cn(-c3ccccc3)nc2-c2ccc(OCc3ccccc3)cc2)C(=O)N1` [VI-09]: the IC50 worked out at 598 ± 142 nM.
Regarding `O=C1NC(=O)C(=Cc2ccc(OCC3CCCCC3)c([N+](=O)[O-])c2)C(=O)N1` [Compound I-38], the IC50 is 1110 ± 104 nM.
With `O=C1NC(=O)C(=Cc2ccc(OCCCOc3ccc4ccccc4c3)c(Cl)c2)C(=O)N1` [Compound I-36], the IC50 amounted to 365 ± 59 nM.
The same measure, in the same setting: with `CCCCCCCCCOc1ccc(C=C2C(=O)NC(=O)NC2=O)cc1[N+](=O)[O-]` [Compound I-41] the figure was 188 ± 43 nM.
With `O=C1NC(=O)C(=Cc2cc(Br)ccc2OCCCCC2CCCCC2)C(=O)N1` [Compound I-14], the half-maximal inhibitory concentration (IC50) amounted to 96 ± 14 nM.
As to `O=C1NC(=O)C(=Cc2ccc(OCCCOc3ccc(-c4ccccc4)cc3)c(Cl)c2)C(=O)N1` [Compound I-35], the IC50 is 337 ± 34 nM.

The test is the same for the next values; noted with them: compound at a concentration of 10 μM; read-out: % inhibition of the compound against mPGES-1, Human enzyme.
The inhibition is the share of the control response that was lost under treatment. Turning to `O=C(CCCN1C(=O)C=CC1=O)Nc1ccc(OCCCC2CCCCC2)cc1` [III-03], the inhibition at 10 µM amounted to 63%.

The test is the same for the next values; noted with them: recombinant microsomal enzyme; means ± SD, triplicate; read-out: IC50 against mPGES-1, Human enzyme.
Take `CCCCOc1ccc(-c2nn(-c3ccc(Cl)cc3)cc2C=C2C(=O)NC(=S)NC2=O)cc1` [VI-12]: the half-inhibitory concentration (IC50) was found to be 56 ± 10 nM.
Still for that read-out and setting: with `O=C(O)CN1C(=O)S/C(=C2\C(=O)N(Cc3ccc(Cl)cc3)c3ccc(-c4ccccc4)cc32)C1=O` [II-27] the figure was 54 ± 14 nM.
In the case of `O=C(O)CN1C(=O)S/C(=C2\C(=O)N(CCCOc3ccccc3)c3ccccc32)C1=O` [II-10], the half-inhibitory concentration (IC50) stood at 805 ± 100 nM.
For the molecule `CCCCOc1ccc(-c2nn(-c3ccccc3)cc2/C=C(/C#N)C(=O)O)cc1` [VII-13], the IC50 amounted to 296 ± 68 nM.
For the molecule `O=C(O)CN1C(=O)S/C(=C2\C(=O)N(CC3CCCCC3)c3ccccc32)C1=O` [II-06], the half-maximal inhibitory concentration (IC50) is 1270 ± 104 nM.
Turning to `CCCCCCN1C(=O)/C(=C2\SC(=O)N(CC(=O)O)C2=O)c2ccccc21` [II-13], the 50% inhibitory concentration (IC50) came to 1070 ± 116 nM.

The target in a further test is T2, mPGES-1 Mouse enzyme (Mus musculus, UniProt Q9JM51).
T2 construct: made in house; host or cells: FreeStyle 293-F cells, crude microsomal preparation
T2 sequence (Q9JM51 1-153): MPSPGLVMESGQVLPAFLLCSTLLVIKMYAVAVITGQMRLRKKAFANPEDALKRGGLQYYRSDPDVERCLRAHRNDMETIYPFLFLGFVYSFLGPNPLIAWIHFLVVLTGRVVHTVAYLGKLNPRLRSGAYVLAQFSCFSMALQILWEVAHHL
In words: mPGES-1 enzyme activity assay (PGE2 enzyme immunoassay), mouse enzyme. In kind it is biochemical. The conditions noted are these: IC50 against mPGES-1, Mouse enzyme, recombinant microsomal enzyme; means ± SD, triplicate. On the procedure: as §1, §2, §3, §4
With `CCCCOc1ccc(-c2nn(-c3ccc(Cl)cc3)cc2C=C2C(=O)NC(=S)NC2=O)cc1` [VI-12], the IC50 was found to be 445 ± 83 nM.
`CCCCCCCOc1ccc(C=C2C(=O)NC(=O)NC2=O)cc1[N+](=O)[O-]` [Compound I-40]: the IC50 was determined as 734 ± 119 nM.
On the same count and under the same terms, next, `O=C1NC(=O)C(=Cc2ccc(OCCCC3CCCCC3)c([N+](=O)[O-])c2)C(=O)N1` [Compound I-26]: 373 ± 51 nM; `COc1cc(C=C2C(=O)NC(=O)NC2=O)ccc1OCCCCC1CCCCC1` [Compound I-06]: 1460 ± 209 nM; `O=C1NC(=O)C(Cc2ccc(OCCCCC3CCCCC3)c(Br)c2)C(=O)N1` [Compound I-43]: 1090 ± 211 nM.
`O=C1NC(=O)C(=Cc2ccc(OCCCCC3CCCCC3)c(Cl)c2)C(=O)N1` [Compound I-21]: the IC50 was found to be 415 ± 120 nM.
Still for that read-out and setting: with `O=C1NC(=O)C(=Cc2ccc(OCCC3CCCCC3)c([N+](=O)[O-])c2)C(=O)N1` [Compound I-37] the figure was 2390 ± 425 nM.
`CCCCCCCCCOc1ccc(C=C2C(=O)NC(=O)NC2=O)cc1[N+](=O)[O-]` [Compound I-41]: the IC50 was determined as 1300 ± 163 nM.

Staying with this test, now noted: compound at a concentration of 10 μM; read-out: % inhibition of the compound against mPGES-1, Mouse enzyme.
Take `O=C(O)CN1C(=O)S/C(=C2\C(=O)N(CCCOc3ccccc3)c3ccccc32)C1=O` [II-10]: the inhibition at 10 µM was found to be 41%.
The same measure, in the same setting: with `CCCCOc1ccc(-c2nn(-c3ccccc3)cc2/C=C(/C#N)C(=O)O)cc1` [VII-13] the figure was 21%; with `CCCCCCN1C(=O)/C(=C2\SC(=O)N(CC(=O)O)C2=O)c2ccccc21` [II-13], 57%.
The same measure, in the same setting: next, `CCCCCCCCCCOc1ccc(-c2nn(-c3ccccc3)cc2C=C2C(=O)NC(=O)NC2=O)cc1` [VI-07]: 21%.
Turning to `CN1C(=O)C(=Cc2ccc(OCCCC3CCCCC3)c(Cl)c2)C(=O)N(C)C1=O` [Compound I-27], the inhibition at 10 µM was 29%.
Take `O=C1NC(=O)C(=Cc2cn(-c3ccccc3)nc2-c2ccc(OCc3ccccc3)cc2)C(=O)N1` [VI-09]: the inhibition at 10 µM worked out at 0%.
Same read-out and setting: next, `O=C1NC(=O)C(=Cc2ccc(OCC3CCCCC3)c([N+](=O)[O-])c2)C(=O)N1` [Compound I-38]: 42%.
With `O=C(CCCN1C(=O)C=CC1=O)Nc1ccc(OCCCC2CCCCC2)cc1` [III-03], the inhibition at 10 µM was 55%.
In the case of `O=C1NC(=O)C(=Cc2ccc(OCCCOc3ccc4ccccc4c3)c(Cl)c2)C(=O)N1` [Compound I-36], the inhibition at 10 µM was 19%.
On to `O=C1NC(=O)C(=Cc2cc(Br)ccc2OCCCCC2CCCCC2)C(=O)N1` [Compound I-14], for which the inhibition at 10 µM amounted to 38%.
For the molecule `O=C1NC(=O)C(=Cc2ccc(OCCCOc3ccc(-c4ccccc4)cc3)c(Cl)c2)C(=O)N1` [Compound I-35], the inhibition at 10 µM turned out to be 17%.

Still in this test, the particulars now being: recombinant microsomal enzyme; means ± SD, triplicate; read-out: IC50 against mPGES-1, Mouse enzyme.
Regarding `O=C(O)CN1C(=O)S/C(=C2\C(=O)N(Cc3ccc(Cl)cc3)c3ccc(-c4ccccc4)cc32)C1=O` [II-27], the IC50 is 13200 ± 5080 nM.
Take `O=C(O)CN1C(=O)S/C(=C2\C(=O)N(CC3CCCCC3)c3ccccc32)C1=O` [II-06]: the IC50 was 2730 ± 422 nM.

The values are drawn from patent publication US12030877B2, “Prostaglandin E synthase inhibitors and methods for utilizing the same” (University of Kentucky Research Foundation, priority 2016, dated 2024).
